Measurements published in ChEMBL document CHEMBL1138357 (J Med Chem, 2007).
Activity calls are given as the source filed them. The calls are words filed in the database; no cut-off is given here.

How the values were obtained:
Rattus norvegicus [1] = experiment: Sleep promoting activity in rat assessed as increase in duration of slow wave sleep at 40 mg/kg, sc; format: functional, organism-based; parameters: dose 40 mg/kg
Rattus norvegicus [2] = experiment: Sleep promoting activity in rat assessed as increase of paradoxical sleep latency at 40 mg/kg, sc; format: functional, organism-based; parameters: dose 40 mg/kg
Rattus norvegicus [3] = experiment: Sleep promoting activity in rat assessed as decrease in latency at 40 mg/kg, sc; format: functional, organism-based; parameters: dose 40 mg/kg
Rattus norvegicus [4] = species on record: Rattus norvegicus; experiment: Anxiolytic activity in Sprague-Dawley rat by elevated plus maze test; format: functional, organism-based
[5] = target: Melatonin receptor type 1A (Homo sapiens, UniProt P48039); experiment: Displacement of 2-[125I]iodomelatonin from human cloned MT1 receptor expressed in […] NIH3T3 cells; format: cell-based
[6] = target: T1, Melatonin receptor type 1B (Homo sapiens, UniProt P49286); experiment: Displacement of 2-[125I]iodomelatonin from human cloned MT2 receptor expressed in […] NIH3T3 cells; format: cell-based
T1 sequence (P49286 whole entry): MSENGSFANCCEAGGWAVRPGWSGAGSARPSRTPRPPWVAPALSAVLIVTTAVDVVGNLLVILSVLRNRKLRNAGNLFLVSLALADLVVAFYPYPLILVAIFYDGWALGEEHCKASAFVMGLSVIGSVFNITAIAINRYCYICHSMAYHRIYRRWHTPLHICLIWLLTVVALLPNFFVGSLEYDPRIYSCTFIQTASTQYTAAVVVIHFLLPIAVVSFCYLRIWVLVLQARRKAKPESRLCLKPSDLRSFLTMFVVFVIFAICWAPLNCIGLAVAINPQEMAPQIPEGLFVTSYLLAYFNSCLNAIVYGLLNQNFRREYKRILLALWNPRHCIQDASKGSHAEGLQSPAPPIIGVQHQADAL

Sequence of Melatonin receptor type 1A (P48039 whole entry): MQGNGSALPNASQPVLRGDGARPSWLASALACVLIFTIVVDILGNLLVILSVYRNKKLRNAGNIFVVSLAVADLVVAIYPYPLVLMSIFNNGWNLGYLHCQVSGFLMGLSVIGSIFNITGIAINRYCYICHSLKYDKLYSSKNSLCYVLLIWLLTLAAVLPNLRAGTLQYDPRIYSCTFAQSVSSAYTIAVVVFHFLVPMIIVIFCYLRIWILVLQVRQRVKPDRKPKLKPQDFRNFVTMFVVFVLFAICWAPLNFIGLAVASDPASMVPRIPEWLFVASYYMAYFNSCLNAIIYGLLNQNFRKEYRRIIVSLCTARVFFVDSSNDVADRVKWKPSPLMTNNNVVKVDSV

Row | SMILES | Ki [5] | Ki [6] | further results
1 | COc1cccc(N(CCNC(C)=O)c2ccccc2)c1 | – | – | Activity (Rattus norvegicus [1]): Active; Activity (Rattus norvegicus [2]): Active; Activity (Rattus norvegicus [3]): Active; Activity (Rattus norvegicus [4]): Active
2 | COc1cccc(OCCNC(C)=O)c1 | 0.00724 µM | 0.0126 µM | –
3 | COc1cccc(NCCNC(C)=O)c1 | – | 0.00741 µM | –
4 | COc1cccc(N(CCNC(=O)C2CCC2)c2ccccc2)c1 | 0.324 µM | – | –
